# Measurements: ChEMBL document CHEMBL6177983, “PSMA-Guided PROTAC Degraders for Tumor-Specific Protein Degradation in Prostate Cancer” (J Med Chem, 2025)
# Active and inactive are the calls of the source. The rule behind the calls is not given here.
# How the values were obtained:
# [1] = target: T1, von Hippel-Lindau disease tumor suppressor/Androgen receptor (Homo sapiens, UniProt P10275+P40337); test: PROTAC activity at AR/VHL in PSMA knockdown human LNCaP cells assessed as induction of androgen receptor degradation at 1 uM measured for 24 hrs by Western blot analysis; assay type: cell-based
# Target sequence in this assay (P10275 whole entry, looked up): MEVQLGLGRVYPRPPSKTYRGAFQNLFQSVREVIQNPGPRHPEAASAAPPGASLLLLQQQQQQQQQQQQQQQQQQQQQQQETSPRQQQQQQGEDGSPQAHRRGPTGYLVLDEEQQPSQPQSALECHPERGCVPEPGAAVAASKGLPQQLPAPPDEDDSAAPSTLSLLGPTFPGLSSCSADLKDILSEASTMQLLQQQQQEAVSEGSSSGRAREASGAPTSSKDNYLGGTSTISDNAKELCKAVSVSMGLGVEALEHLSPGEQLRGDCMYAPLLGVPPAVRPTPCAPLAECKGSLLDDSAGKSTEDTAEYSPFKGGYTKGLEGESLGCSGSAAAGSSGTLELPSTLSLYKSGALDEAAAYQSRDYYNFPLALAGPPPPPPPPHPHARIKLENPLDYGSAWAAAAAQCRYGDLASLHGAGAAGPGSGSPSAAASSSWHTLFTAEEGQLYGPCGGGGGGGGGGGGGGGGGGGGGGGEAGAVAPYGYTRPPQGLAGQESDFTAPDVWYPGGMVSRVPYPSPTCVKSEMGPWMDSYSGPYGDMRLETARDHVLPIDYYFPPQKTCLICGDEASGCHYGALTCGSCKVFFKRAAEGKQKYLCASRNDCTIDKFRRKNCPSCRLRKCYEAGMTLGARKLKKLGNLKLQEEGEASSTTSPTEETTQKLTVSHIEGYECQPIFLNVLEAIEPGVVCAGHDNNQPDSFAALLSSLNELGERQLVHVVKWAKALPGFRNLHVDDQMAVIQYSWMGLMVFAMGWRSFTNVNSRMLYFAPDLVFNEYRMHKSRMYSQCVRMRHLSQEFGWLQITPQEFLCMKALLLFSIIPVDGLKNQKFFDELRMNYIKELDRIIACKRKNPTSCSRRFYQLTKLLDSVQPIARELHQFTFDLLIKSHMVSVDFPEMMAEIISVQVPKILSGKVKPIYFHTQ
# Target sequence in this assay (P40337 whole entry, looked up): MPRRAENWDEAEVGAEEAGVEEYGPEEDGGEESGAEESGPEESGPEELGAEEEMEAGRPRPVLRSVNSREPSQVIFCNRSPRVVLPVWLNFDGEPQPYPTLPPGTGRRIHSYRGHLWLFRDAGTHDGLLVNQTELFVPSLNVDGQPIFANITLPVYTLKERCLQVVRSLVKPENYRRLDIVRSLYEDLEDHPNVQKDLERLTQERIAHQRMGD
# [2] = target: T1, von Hippel-Lindau disease tumor suppressor/Androgen receptor; test: PROTAC activity at AR/VHL in human LNCaP cells assessed as induction of androgen receptor degradation at 1 uM measured for 6 hrs in presence of PSMA ligand by Western blot analysis; assay type: cell-based
# Target sequence in this assay (P10275 whole entry, looked up): as the sequence (P10275 whole entry, looked up) above
# Target sequence in this assay (P40337 whole entry, looked up): as the sequence (P40337 whole entry, looked up) above
# [3] = target: T1, von Hippel-Lindau disease tumor suppressor/Androgen receptor; test: PROTAC activity at AR/VHL in human 22Rv1 cells assessed as induction of androgen receptor degradation at 1 uM measured for 6 hrs in presence of VH032 by Western blot analysis; assay type: cell-based
# Target sequence in this assay (P10275 whole entry, looked up): as the sequence (P10275 whole entry, looked up) above
# Target sequence in this assay (P40337 whole entry, looked up): as the sequence (P40337 whole entry, looked up) above
# [4] = target: T1, von Hippel-Lindau disease tumor suppressor/Androgen receptor; test: PROTAC activity at AR/VHL in human 22Rv1 cells assessed as induction of androgen receptor degradation at 1 uM measured for 6 hrs in presence of MLN4924 by Western blot analysis; assay type: cell-based
# Target sequence in this assay (P10275 whole entry, looked up): as the sequence (P10275 whole entry, looked up) above
# Target sequence in this assay (P40337 whole entry, looked up): as the sequence (P40337 whole entry, looked up) above
# [5] = system: LNCaP; test: Downregulation of PSA expression in human LNCaP cells measured up to 5 uM incubated for 12 hrs by RT-qPCR analysis; assay type: functional, cell-based
# [6] = target: T1, von Hippel-Lindau disease tumor suppressor/Androgen receptor; test: PROTAC activity at AR/VHL in human 22Rv1 cells assessed as induction of androgen receptor degradation at 1 uM measured for 6 hrs in presence of MG132 by Western blot analysis; assay type: cell-based
# Target sequence in this assay (P10275 whole entry, looked up): as the sequence (P10275 whole entry, looked up) above
# Target sequence in this assay (P40337 whole entry, looked up): as the sequence (P40337 whole entry, looked up) above
# [7] = target: T1, von Hippel-Lindau disease tumor suppressor/Androgen receptor; test: PROTAC activity at AR/VHL in human HEK293T cells assessed as effect on AR level measured for 12 hrs by Western blot analysis; assay type: cell-based
# Target sequence in this assay (P10275 whole entry): as the sequence (P10275 whole entry, looked up) above
# Target sequence in this assay (P40337 whole entry): as the sequence (P40337 whole entry, looked up) above
# [8] = target: T1, von Hippel-Lindau disease tumor suppressor/Androgen receptor; test: PROTAC activity at AR/VHL in human HEK293T cells assessed as effect on AR level at 0.03 to 10 uM measured for 12 hrs by Western blot analysis; assay type: cell-based; conditions: dose 0.03-10 µM
# Target sequence in this assay (P10275 whole entry, looked up): as the sequence (P10275 whole entry, looked up) above
# Target sequence in this assay (P40337 whole entry, looked up): as the sequence (P40337 whole entry, looked up) above
# [9] = target: T1, von Hippel-Lindau disease tumor suppressor/Androgen receptor; test: PROTAC activity at AR/VHL in human MDA-MB-231 cells assessed as effect on AR level measured for 12 hrs by Western blot analysis; assay type: cell-based
# Target sequence in this assay (P10275 whole entry): as the sequence (P10275 whole entry, looked up) above
# Target sequence in this assay (P40337 whole entry): as the sequence (P40337 whole entry, looked up) above
# [10] = system: LNCaP; test: Downregulation of TMPRSS2 expression in human LNCaP cells measured up to 5 uM incubated for 12 hrs by RT-qPCR analysis; assay type: functional, cell-based
# [11] = target: T1, von Hippel-Lindau disease tumor suppressor/Androgen receptor; test: PROTAC activity at AR/VHL in human MCF7 cells assessed as effect on AR level measured for 12 hrs by Western blot analysis; assay type: cell-based
# Target sequence in this assay (P10275 whole entry): as the sequence (P10275 whole entry, looked up) above
# Target sequence in this assay (P40337 whole entry): as the sequence (P40337 whole entry, looked up) above
# [12] = target: T1, von Hippel-Lindau disease tumor suppressor/Androgen receptor; test: PROTAC activity at AR/VHL in human 22Rv1 cells assessed as induction of androgen receptor degradation at 1 uM measured for 6 hrs in presence of PSMA ligand by Western blot analysis; assay type: cell-based
# [13] = target: T1, von Hippel-Lindau disease tumor suppressor/Androgen receptor; test: PROTAC activity at AR/VHL in human LNCaP cells assessed as induction of androgen receptor degradation at 0.03 to 3 uM measured for 12 hrs by Western blot analysis; assay type: cell-based; conditions: dose 0.03-3 µM
# [14] = target: T1, von Hippel-Lindau disease tumor suppressor/Androgen receptor; test: PROTAC activity at AR/VHL in human VCaP cells assessed as induction of androgen receptor degradation at 0.03 to 3 uM measured for 12 hrs by Western blot analysis; assay type: cell-based; conditions: dose 0.03-3 µM
# [15] = target: T1, von Hippel-Lindau disease tumor suppressor/Androgen receptor; test: PROTAC activity at AR/VHL in human MDA-MB-231 cells assessed as effect on AR level at 0.03 to 10 uM measured for 12 hrs by Western blot analysis; assay type: cell-based; conditions: dose 0.03-10 µM
# [16] = target: T1, von Hippel-Lindau disease tumor suppressor/Androgen receptor; test: PROTAC activity at AR/VHL in human LNCaP cells assessed as induction of androgen receptor degradation measured for 12 hrs by Western blot analysis; assay type: cell-based
# [17] = target: T1, von Hippel-Lindau disease tumor suppressor/Androgen receptor; test: PROTAC activity at AR/VHL in human 22Rv1 cells assessed as induction of androgen receptor degradation at 0.03 to 3 uM measured for 12 hrs by Western blot analysis; assay type: cell-based; conditions: dose 0.03-3 µM
# [18] = target: T1, von Hippel-Lindau disease tumor suppressor/Androgen receptor; test: PROTAC activity at AR/VHL in human 22Rv1 cells assessed as induction of androgen receptor degradation measured for 12 hrs by Western blot analysis; assay type: cell-based
# [19] = system: LNCaP; test: Downregulation of FKB51 expression in human LNCaP cells measured up to 5 uM incubated for 12 hrs by RT-qPCR analysis; assay type: functional, cell-based
# [20] = target: T1, von Hippel-Lindau disease tumor suppressor/Androgen receptor; test: PROTAC activity at AR/VHL in human LNCaP cells assessed as induction of androgen receptor degradation at 1 uM measured for 6 hrs in presence of MG132 by Western blot analysis; assay type: cell-based
# [21] = target: T1, von Hippel-Lindau disease tumor suppressor/Androgen receptor; test: In vivo PROTAC activity at AR/VHL in BALB/c mouse xenografted with human LNCaP cells assessed as reduction in AR level in tumor at 1 mmol/L, iv measured for 3 days by Western blot analysis; assay type: functional, organism-based; conditions: time 3.0 day
# [22] = Stability of the compound in PBS buffer measured up to 24 hrs by HPLC analysis; assay type: physicochemical; conditions: read-out: Stability
# [23] = Drug accumulation in male BALB/c mouse tumor implanted with human 22Rv1 cells at 0.3 mmol/L, iv measured at 1 to 24 hrs by LC-MS/MS analysis; assay type: ADME, organism-based, Neoplasm, CWR22R; conditions: in vivo, time 1-24 hrs
# [24] = target: T1, von Hippel-Lindau disease tumor suppressor/Androgen receptor; test: PROTAC activity at AR/VHL in human MCF7 cells assessed as effect on AR level at 0.03 to 10 uM measured for 12 hrs by Western blot analysis; assay type: cell-based; conditions: dose 0.03-10 µM
# [25] = target: T1, von Hippel-Lindau disease tumor suppressor/Androgen receptor; test: PROTAC activity at AR/VHL in human LNCaP cells assessed as induction of androgen receptor degradation at 1 uM measured for 6 hrs in presence of MLN4924 by Western blot analysis; assay type: cell-based
# [26] = target: T1, von Hippel-Lindau disease tumor suppressor/Androgen receptor; test: PROTAC activity at AR/VHL in human VCaP cells assessed as induction of androgen receptor degradation measured for 12 hrs by Western blot analysis; assay type: cell-based
# [27] = target: T1, von Hippel-Lindau disease tumor suppressor/Androgen receptor; test: PROTAC activity at AR/VHL in human LNCaP cells assessed as induction of androgen receptor degradation at 1 uM measured for 6 hrs in presence of VH032 by Western blot analysis; assay type: cell-based
smiles,measurement,setting,value
Cc1ncsc1-c1ccc(CNC(=O)[C@@H]2C[C@@H](OC(=O)CCOCCOCCOCCC(=O)NCCCC[C@H](NC(=O)N[C@@H](CCC(=O)O)C(=O)O)C(=O)O)CN2C(=O)[C@@H](NC(=O)CCCCCCCCCNC(=O)c2ccc(C(=O)N[C@H]3C(C)(C)[C@H](Oc4ccc(C#N)c(Cl)c4)C3(C)C)cc2)C(C)(C)C)cc1,Activity,[1],Active
same,Activity,[2],Active
same,Activity,[3],Active
same,Activity,[4],Active
same,Activity,[5],Active
same,Activity,[6],Active
same,DC50,[7],> 5 µM
same,Activity,[8],Active
same,DC50,[9],> 5 µM
same,Activity,[10],Active
same,DC50,[11],> 5 µM
same,Activity,[12],Active
same,Activity,[13],Active
same,Activity,[14],Active
same,Activity,[15],Active
same,DC50,[16],0.0444 µM
same,Activity,[16]; dose 0.03-10 µM,Dose-dependent-effect
same,Activity,[17],Active
same,DC50,[18],0.0502 µM
same,Activity,[18]; dose 0.03-10 µM,Dose-dependent-effect
same,Activity,[19],Active
same,Activity,[20],Active
same,Activity,[21],Active
same,remaining at 24 h,[22],> 90%
same,Drug uptake,[23],Active
same,Activity,[24],Active
same,Activity,[25],Active
same,DC50,[26],0.0219 µM
same,Activity,[26]; dose 0.03-10 µM,Dose-dependent-effect
same,Activity,[27],Active
